From US12310969B2, “Antithrombotic compositions and methods for using same” (UNIVERSITY OF NORTH TEXAS, priority 2021, dated 2025) come the findings set out here.

The structures appear in SMILES notation.

One test relates to zebrafish larvae. Description: Laser-induced venous thrombosis, time to occlusion (TTO) of the caudal vein. Type of test: in vivo. As to conditions: 5 dpf larvae, 2 hours. As to the method: (§1) UNC6852 (MedChem Express, Monmouth Junction, NJ), in 10% DMSO in saline were prepared at four different concentrations (0.075 mM, 0.15 mM, 0.3 mM and 0.6 mM). Eight nl of each of these solutions was injected into the 5 dpf larvae and incubated for 2 hours. For controls, 10% DMSO in saline was injected. For adult fish injections, 5 μl of 0.6 mM UNC6852 was injected intravenously and incubated for 6 hours.
For laser-induced venous thrombosis, 5 dpf larvae were transferred into a 1.5 ml Eppendorf tube containing 0.5 ml E3 medium followed by the addition of 10 μl of 10 mM MS222. After 2 minutes of anesthesia, 0.5 ml of 1.6% low melting agarose at 37° C. was added to the Eppendorf tube, and the contents were mixed gently by pipetting up and down using a transfer pipette. […] The slide with the larvae was focused with a 20× objective of the Nikon OPTIPHOT™ fluorescence microscope. The pulsed nitrogen laser with a wavelength of 445 nm, routed through the coumarin-440 dye (Micro Point Laser, Stanford Research Systems Inc., Sunnyvale, CA), was delivered at 10 hits per cycle through the fluorescence port to hit the mid-region in the caudal vein located in the 5th somite posterior to the anal pore.^22 TTO of the vessel was measured as the time taken to occlude the vessel from the time the laser hits the vessel until the vessel completely occludes.

The subject of the next test is tfpia mRNA. Description: qRT-PCR of tfpia gene expression in liver and spleen of adult zebrafish. To be noted: adult fish, 5 μl of 0.6 mM injected intravenously, 6 hours post-injection, vs wild-type control. It counts as in vivo. How it is done:
as §1
Adult zebrafish were first anesthetized using 1 mM Tricaine in E3 medium. After 2 minutes, once the zebrafish flips on its side, it was removed from the medium, and an incision was made in the ventral surface from the anal pore up to the gills using a pair of scissors. The visible liver and spleen were retrieved using a pair of forceps. […]
To 1 μl of the liver and spleen RNA (1 μg/μl), 4 μl of QSCRIPT™ (gScript™) cDNA SUPERMIX™ (Quanta Bio, Beverly, MA) and 15 μl of nuclease-free water were added. […] The ΔCt values for WT samples were calculated as a difference between Ct values of β-actin and tfpia. The average ΔCt value for WT was then calculated. […] Similarly, in the knockdown samples, from each ΔCt value, the average ΔCt value of the WT was subtracted, and the resulting ΔΔCt value was calculated, followed by the calculation of fold change.

On to `Cc1ncsc1-c1ccc(CNC(=O)[C@@H]2C[C@@H](O)CN2C(=O)[C@@H](NC(=O)CCCNC(=O)c2ccc(-c3cnc(NCc4ccco4)n4cnnc34)cc2)C(C)(C)C)cc1` [UNC6852], for which the “time to occlusion (TTO) of the caudal vein after laser injury” value in the test with zebrafish larvae (8 nl injected intravenously at 0.075, 0.15, 0.3 and 0.6 mM, compared to control larvae (10% DMSO in saline)) is on record as “dose-dependent prolongation of TTO”. The “concentration giving maximal prolongation of TTO” value in the test on zebrafish larvae (8 nl injected intravenously, 4 concentrations tested (0.075-0.6 mM)) came to 0.6 mM. Besides, in the test with tfpia mRNA, the “tfpia mRNA levels (fold change of tfpia gene expression in liver and spleen)” value is reported as “increased tfpia mRNA levels”.
